Reference: patent US7601846B2, “Compounds having activity as inhibitors of apoptosis” (The Regents of the University of California, priority 2001, dated 2009)
Structures can show the parent of a compound that is named as a salt. Where two headings read alike, the source gives them in different places.

Columns and labels:
[1] = test system: Murine thymocytes; assay: Dexamethasone-induced thymocyte apoptosis assay (DiOC6/PI staining, flow cytometry); assay type: cell-based; details: Mus musculus, 6 hours; for viability at 10 µM: compound 10 μM; for viability at 10 µM / viability at 5 µM: challenged with DEX, control 72 ± 4, DEX alone 36 ± 7, read-out: Average cell survival (%) Average alive cells (%); for EC50: 5 μM dexamethasone; for viability at 5 µM: compound tested at 5 μM (footnote b)
Description: All of the compounds were screened in the thymocyte assay for cytotoxicity and their ability to prevent dexamethasone-induced cell death. Murine thymocytes were exposed to 10 μM or 5 μM of each compound in the presence or absence of DEX for six hours and then assayed for their in vitro viability by 3,3′-dihexyloxacarbocyanine iodide (DiOC6) and propidium iodide (PI) staining, and flow cytometry. When cell death signals converge on the mitochondria, there is a loss of the inner mitochondrial membrane potential and cells can no longer retain the dye DiOC6 as an indicator of apoptosis. Once cells lose the integrity of the outer cell membrane, then the dye propidium iodide is no longer excluded from these cells. The percentage of viable cells, which retained DiOC6 and excluded PI was compared to cells treated with DEX alone.
Apoptosis assays. Thymocytes were harvested from young C57B1/6 mice and cultured at 37° C. in 5% CO2 in RPMI 1640 containing 10% FBS, 1% Penicillin/Streptomycin (Gibco BRL, Rockville, Md.). Thymocytes were plated at a density of 10^7 cells/mL and pre-incubated with 5-10 μM of each compound (from 10 mM stock in DMSO) for 30 minutes before induction of apoptosis. Apoptosis was induced with 5 μM dexamethasone or by exposure to 6 Gy gamma radiation. After 6 hours, cell apoptosis was assayed by propidium iodide (PI) and 3,3′ dihexyloxacarbocyanine iodide (DiOC6) staining. The cells were removed from the plate and incubated for 30 minutes in medium with 40 nM DiOC6 and 5 μg/mL PI and then analyzed by flow cytometry in a FACS caliber (Beckton-Dickinson, San Jose, Calif.). Viable cells had high DiOC6 (FL-1) and low PI (FL-3), whereas apoptotic cells had low DiOC6 (FL-1) and low PI (FL-3). To evaluate the EC50s the thymocytes were pre-exposed to graded concentrations of selected compounds for 30 minutes and then apoptosis was induced with 5 μM dexamethasone. After 6 hours the cells were harvested and stained as above.
The concentration (EC50) of each compound that inhibited dexamethasone-induced cell death by 50% was determined by nonlinear regression fitting of the data to a one-site model. Pseudo Hill slopes were determined by nonlinear regression fit of the data to a sigmoidal dose-response equation (variable slope): % viability=minimum % viability+(maximum−minimum % viability)/[1+10(log EC50−X)^n], where X is the logarithm of inhibitor concentration, and n is the pseudo Hill slope and the maximum and minimum % viability were experimentally determined after dexamethasone exposure and drug treatment. EC50 values and 95% confidence intervals (CI) were derived from the sigmoid fits to the percent control transformed data shown using GraphPad Prism version 4.0b for Macintosh (GraphPad Software, San Diego, Calif.).

[2] = test system: Bax, PUMA, noxa, DR5 (killer) mRNA; assay: Modulation of proapoptotic genes by real time PCR in DEX-treated thymocytes; assay type: cell-based, mouse
Description: Four proapoptotic genes were tested by real time PCR. […] PUMA and noxa belong to the BH3-only protein subclass while Bax is a multidomain member of the family. DR5 (also called killer) is an apoptosis-inducing membrane receptor for tumor necrosis factor-related apoptosis-inducing ligand (also called TRAIL and Apo2 ligand). DR5 is a transcriptional target of p53, and its over expression induces cell death in vitro (Finnberg et al., Molecular and Cellular Biology 2005, 25, 2000-2013).

[3] = test system: PUMA; assay: PUMA protein expression in DEX-treated thymocytes (western blot); assay type: cell-based, mouse; details: thymocytes pretreated with 10 μM compound, 5 μM dexamethasone 6 hours, FIG. 6
Description: Thymocytes were pretreated with 10 μM of the indicated compounds and then exposed to 5 μM of dexamethasone for 6 hours. The cytosolic proteins were fractionated and then separated on a 4-12% gradient gel by SDS-PAGE and transferred to a PDVF membrane, which was probed with antibodies to PUMA and actin.
After removal of medium, cells were disrupted in lysis buffer (10 mM HEPES pH 7.9, 10 mM KCl, 0.1 mM EDTA, 0.1 mM EGTA, 1 mM dithiothreitol, 0.5 mM phenylmethylsulfonyl fluoride, and 0.6% NP-40) on ice. The nuclei were separated by centrifugation and the cytoplasmic sample removed. The nuclear pellets were resuspended in (20 mM HEPES pH 7.9, 0.4 M NaCl, 1.0 mM EDTA, 1.0 mM EGTA, 1 mM dithiothreitol, 0.1 mM phenylmethylsulfonyl fluoride) and the insoluble material was removed by centrifugation. The samples were heated to 70° C. for 10 minutes in loading buffer with 10 mM DTT. Each lane of an SDS-PAGE gel was loaded with 20 μg of protein. After electrophoresis, the proteins were transferred to a polyvinylidene difluoride (PVDF) membrane, blocked with 2% I-block™ (Tropix Inc, Bedford, Mass.) containing 0.05% Tween-20 in PBS, and then incubated with anti-PUMA (AbCam, Inc., Cambridge, Mass.). Horseradish peroxidase-conjugated anti-IgG (Santa Cruz Laboratories, Santa Cruz, Calif.) was used as the secondary antibody. […]

[4] = test system: spontaneous apoptosis and fludarabine-induced apoptosis; assay: Protection against spontaneous and fludarabine-induced apoptosis (FIG. 2); assay type: cell-based
[5] = cited from earlier work
[6] = Table 2, 30 minutes pre-exposure, read-out: EDEC50 (μM) of compounds in thymocyte apoptosis assay (first value in cell) (converted)
[7] = mouse thymocytes treated with DEX, FIG. 5
[8] = Table 1, 30 minutes pre-exposure, read-out: EDEC50 (μM) of compounds in thymocyte apoptosis assay

Compound: c1coc(-c2cn3c(n2)sc2ccccc23)c1 [Compound 3, 2-Furan-2-yl-imidazo[2,1-b]benzothiazole hydrobromide salt]
- viability at 10 µM [1]: 16%

Compound: C[C@@H]1C[C@H]2[C@@H]3CCC4=CC(=O)C=C[C@]4(C)[C@@]3(F)[C@@H](O)C[C@]2(C)[C@@]1(O)C(=O)CO [Dexamethasone, reference compound]
- Increase of PUMA mRNA upon treatment ([2]; mouse thymocytes, DEX treatment alone): over 9 fold

Compound: c1ccc2c(c1)sc1nc(-c3ccc(C4CCCC4)cc3)cn12 [Compound 8, 2-(4-Cyclopentyl-phenyl)-imidzxo[2,1-b]benzothiazoles hydrobromide salt]
- viability at 10 µM [1]: 36%

Compound: c1ccc(-c2ccc(-c3cn4c(n3)sc3ccccc34)cc2)cc1 [Compound 10]
- EC50 [1, 6]: 8.12 µM
- viability at 10 µM [1]: 59%

Compound: Br.c1ccc2c(c1)sc1nc(-c3ccc(N4CCCC4)cc3)cn12 [Compound 15, 2-(4-Pyrrolidin-1-yl-phenyl)-benzo[d]imidazo[2,1-b]thiazole hydrobromide salt]
- EC50 [1, 6]: 0.35 µM
- viability at 5 µM [1]: 78%
- mRNA level of bax and killer relative to control [2, 7]: below it
- mRNA level of proapoptotic genes (Bax, PUMA, noxa, DR5) relative to control [2, 7]: close to that of the control
- PUMA protein expression (western blot) [3]: total inhibition

Compound: Cc1ccc(-c2cn3c4c(sc3n2)CCCC4)cc1 [IBT]
- Effect against fludarabine-induced apoptosis [4]: protective effect
- Effect against spontaneous apoptosis [4]: protective effect

Compound: Cc1ccc(-c2cn3c(n2)sc2cc(Br)ccc23)cc1 [Compound 9, 7-Bromo-2-p-tolylimidazo[2,1-b]benzothiazole hydrobromide salt]
- viability at 10 µM [1]: 39%

Compound: Cc1ccc(-c2cn3c(n2)sc2cc(O)ccc23)cc1 [Compound 4, 2-p-Tolyl-benzo[d]imidazo[2,1-b]thiazol-7-ol]
- viability at 5 µM [1]: 19%

Compound: Cc1ccc(-c2cn3c(n2)sc2cc(N)ccc23)cc1 [Compound 7, 2-p-Tolyl-imidazo[2,1-b]benzothiazol-7-ylamine]
- viability at 10 µM [1]: 27%

Compound: Cc1ccc(-c2nc3sc4ccccc4n3c2Br)cc1 [Compound 6, 3-Bromo-2-p-tolyl-imidazo[2,1-b]benzothiazole]
- viability at 5 µM [1]: 24%

Compound: c1ccc2cc(-c3ccc(-c4cn5c(n4)sc4ccccc45)cc3)ccc2c1 [Compound 14]
- EC50 [1, 6]: 4.02 µM
- viability at 5 µM [1]: 75%

Compound: Cc1ccc(-c2cn3c(n2)sc2ccccc23)cc1 [Compound 13]
- EC50 [1, 6]: 1.22 µM
- viability at 5 µM [1]: 73%

Compound: Cc1ccc(C(=O)Cn2c3c(sc2=N)CCCC3)cc1 [PFT-α, 2-(2-imino-4,5,6,7-tetrahydro-benzothiazol-3-yl)-1-p-tolyl-ethanone hydrobromide, reference compound]
- PUMA protein expression (western blot) [3]: partial inhibition
- Stability under physiologic conditions [5]: not stable

Compound: Brc1ccc(-c2cn3c(n2)sc2ccccc23)cc1 [Compound 5]
- viability at 10 µM [1]: 22%

Compound: COc1ccc2c(c1)sc1nc(-c3ccc(C)cc3)cn12 [Compound 11, 7-Methoxy-2-p-tolyl-imidazo[2,1-b]benzothiazole hydrobromide salt]
- EC50 [1, 8]: 4.44 µM
- viability at 5 µM [1]: 68%

Compound: c1ccc(-c2cn3c(n2)sc2ccccc23)cc1 [Compound 12]
- EC50 [1, 8]: 10.2 µM
- viability at 10 µM [1]: 73%
